Measured values as given in paper PMC4699737, “TrpA1 Regulates Defecation of Food-Borne Pathogens under the Control of the Duox Pathway” (PLoS Genetics, 2016).

How the values were obtained:
Assay in all cases: two-electrode voltage clamp, Xenopus oocytes, Hill fit
Assay type in all cases: cell-based
Details in all cases: agonist (activation); -60 mV, pH 7.6; currents normalized to 100 ppm NaOCl, steady state
TRPA1(A)10a = molecular target: T1, TRPA1(A)10a (Drosophila melanogaster, UniProt G8IQ59)
T1 construct: full-length splice isoform, TrpA1 cRNA injected in Xenopus laevis oocytes
T1 sequence (G8IQ59 1-1232): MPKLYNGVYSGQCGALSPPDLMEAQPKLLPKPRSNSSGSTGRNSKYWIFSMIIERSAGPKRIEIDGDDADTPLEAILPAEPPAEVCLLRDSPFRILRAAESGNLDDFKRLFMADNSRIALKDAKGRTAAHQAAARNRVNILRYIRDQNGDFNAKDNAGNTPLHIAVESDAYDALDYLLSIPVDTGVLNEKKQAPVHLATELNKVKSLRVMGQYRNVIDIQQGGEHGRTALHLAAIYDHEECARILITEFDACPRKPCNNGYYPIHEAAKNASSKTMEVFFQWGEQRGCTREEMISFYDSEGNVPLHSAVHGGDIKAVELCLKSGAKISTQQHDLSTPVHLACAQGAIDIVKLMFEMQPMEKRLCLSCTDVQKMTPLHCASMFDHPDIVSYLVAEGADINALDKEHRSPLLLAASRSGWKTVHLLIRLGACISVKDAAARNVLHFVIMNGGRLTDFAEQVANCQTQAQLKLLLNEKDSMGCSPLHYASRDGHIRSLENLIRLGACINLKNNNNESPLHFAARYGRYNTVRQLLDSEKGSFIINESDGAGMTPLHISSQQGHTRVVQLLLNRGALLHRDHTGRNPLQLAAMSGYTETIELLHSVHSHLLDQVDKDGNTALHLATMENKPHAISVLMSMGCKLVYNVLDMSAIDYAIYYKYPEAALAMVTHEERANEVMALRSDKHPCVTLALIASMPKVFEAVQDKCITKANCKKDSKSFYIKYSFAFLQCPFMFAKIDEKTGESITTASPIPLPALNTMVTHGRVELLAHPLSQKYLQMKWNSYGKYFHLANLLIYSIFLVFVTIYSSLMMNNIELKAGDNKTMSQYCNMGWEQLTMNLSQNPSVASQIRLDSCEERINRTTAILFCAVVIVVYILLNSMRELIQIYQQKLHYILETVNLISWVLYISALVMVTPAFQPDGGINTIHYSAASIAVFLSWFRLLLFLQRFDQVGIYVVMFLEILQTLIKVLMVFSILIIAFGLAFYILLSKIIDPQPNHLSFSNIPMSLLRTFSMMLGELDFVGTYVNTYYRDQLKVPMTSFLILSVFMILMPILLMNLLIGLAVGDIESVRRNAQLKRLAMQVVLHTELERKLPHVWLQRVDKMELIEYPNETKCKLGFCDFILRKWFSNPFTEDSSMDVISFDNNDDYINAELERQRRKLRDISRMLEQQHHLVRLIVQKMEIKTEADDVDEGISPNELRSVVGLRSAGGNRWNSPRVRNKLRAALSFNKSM

hsTRPA1 = molecular target: T2, hsTRPA1 (Homo sapiens, UniProt O75762)
T2 construct: gene TRPA1; full-length, cRNA injected in Xenopus laevis oocytes

TRPA1(B)10a = molecular target: T3, TRPA1(B)10a (Drosophila melanogaster, UniProt Q7Z020)
T3 construct: full-length splice isoform, TrpA1 cRNA injected in Xenopus laevis oocytes
T3 sequence (Q7Z020 1-1197): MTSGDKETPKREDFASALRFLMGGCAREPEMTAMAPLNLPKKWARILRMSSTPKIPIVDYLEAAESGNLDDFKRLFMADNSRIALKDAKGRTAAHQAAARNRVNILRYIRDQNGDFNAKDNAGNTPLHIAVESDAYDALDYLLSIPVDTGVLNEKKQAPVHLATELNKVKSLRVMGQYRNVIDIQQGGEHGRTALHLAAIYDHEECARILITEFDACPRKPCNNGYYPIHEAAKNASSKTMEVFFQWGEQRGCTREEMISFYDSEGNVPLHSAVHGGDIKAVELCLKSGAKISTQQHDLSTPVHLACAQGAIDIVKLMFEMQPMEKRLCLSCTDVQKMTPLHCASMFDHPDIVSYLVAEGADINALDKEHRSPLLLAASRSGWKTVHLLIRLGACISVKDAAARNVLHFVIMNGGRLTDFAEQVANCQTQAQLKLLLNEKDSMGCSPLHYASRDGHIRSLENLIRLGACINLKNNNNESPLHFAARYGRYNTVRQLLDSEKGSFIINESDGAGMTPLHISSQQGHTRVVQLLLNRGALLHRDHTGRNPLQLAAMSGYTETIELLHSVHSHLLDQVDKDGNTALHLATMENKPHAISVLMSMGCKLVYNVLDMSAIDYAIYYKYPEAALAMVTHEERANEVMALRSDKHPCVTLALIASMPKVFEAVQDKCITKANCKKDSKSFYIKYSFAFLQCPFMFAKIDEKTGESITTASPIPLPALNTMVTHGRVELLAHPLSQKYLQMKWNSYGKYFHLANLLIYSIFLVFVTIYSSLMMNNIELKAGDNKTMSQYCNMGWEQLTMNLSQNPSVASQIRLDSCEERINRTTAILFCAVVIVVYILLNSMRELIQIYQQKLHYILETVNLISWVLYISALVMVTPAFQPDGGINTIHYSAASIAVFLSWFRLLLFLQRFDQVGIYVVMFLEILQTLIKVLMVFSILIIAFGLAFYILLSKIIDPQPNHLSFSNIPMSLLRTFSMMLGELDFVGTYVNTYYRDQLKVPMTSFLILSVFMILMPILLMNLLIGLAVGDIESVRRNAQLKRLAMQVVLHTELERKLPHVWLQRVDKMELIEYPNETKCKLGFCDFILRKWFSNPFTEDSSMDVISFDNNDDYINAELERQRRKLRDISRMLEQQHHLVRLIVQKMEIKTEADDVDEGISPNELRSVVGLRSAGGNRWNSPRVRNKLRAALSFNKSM

TRPA1(A)10b = molecular target: T4, TRPA1(A)10b (Drosophila melanogaster, UniProt H0USS9)
T4 construct: full-length splice isoform, TrpA1 cRNA injected in Xenopus laevis oocytes
T4 sequence (H0USS9 1-1231): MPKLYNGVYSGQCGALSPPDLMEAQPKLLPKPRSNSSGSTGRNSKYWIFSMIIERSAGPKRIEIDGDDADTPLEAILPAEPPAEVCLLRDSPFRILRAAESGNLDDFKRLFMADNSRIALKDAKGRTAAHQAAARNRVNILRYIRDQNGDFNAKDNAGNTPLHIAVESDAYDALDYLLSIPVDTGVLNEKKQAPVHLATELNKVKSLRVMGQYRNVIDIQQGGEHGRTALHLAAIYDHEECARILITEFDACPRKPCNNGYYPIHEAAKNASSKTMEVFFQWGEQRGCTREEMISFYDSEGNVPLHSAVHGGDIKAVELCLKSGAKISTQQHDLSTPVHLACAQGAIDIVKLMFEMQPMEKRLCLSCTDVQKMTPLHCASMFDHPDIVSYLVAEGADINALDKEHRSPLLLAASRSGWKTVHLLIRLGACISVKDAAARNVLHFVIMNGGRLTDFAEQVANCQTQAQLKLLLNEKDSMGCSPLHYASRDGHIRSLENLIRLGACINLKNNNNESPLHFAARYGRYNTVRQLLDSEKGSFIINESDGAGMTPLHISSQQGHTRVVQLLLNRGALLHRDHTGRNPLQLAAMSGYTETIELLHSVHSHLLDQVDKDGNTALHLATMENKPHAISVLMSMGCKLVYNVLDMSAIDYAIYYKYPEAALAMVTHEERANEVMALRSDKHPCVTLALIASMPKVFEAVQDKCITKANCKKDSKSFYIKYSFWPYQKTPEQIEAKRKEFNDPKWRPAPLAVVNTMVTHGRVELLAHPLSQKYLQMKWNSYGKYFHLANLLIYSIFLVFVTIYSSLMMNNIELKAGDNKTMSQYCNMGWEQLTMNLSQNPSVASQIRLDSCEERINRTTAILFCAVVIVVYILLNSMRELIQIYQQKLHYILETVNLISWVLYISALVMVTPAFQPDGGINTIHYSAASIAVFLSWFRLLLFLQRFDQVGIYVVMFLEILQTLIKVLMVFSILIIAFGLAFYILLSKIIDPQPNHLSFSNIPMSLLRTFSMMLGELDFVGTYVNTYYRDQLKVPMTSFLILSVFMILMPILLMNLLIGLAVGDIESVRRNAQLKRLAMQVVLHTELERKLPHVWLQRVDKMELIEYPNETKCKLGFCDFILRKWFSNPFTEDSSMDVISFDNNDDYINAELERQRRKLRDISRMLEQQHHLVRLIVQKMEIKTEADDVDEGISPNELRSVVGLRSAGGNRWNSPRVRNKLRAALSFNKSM
From the text: two-electrode voltage clamp, Xenopus oocytes, Hill fit on TRPA1(A)10b | The data were fitted to Hill equation to determine EC50s

T2 sequence (O75762 whole entry): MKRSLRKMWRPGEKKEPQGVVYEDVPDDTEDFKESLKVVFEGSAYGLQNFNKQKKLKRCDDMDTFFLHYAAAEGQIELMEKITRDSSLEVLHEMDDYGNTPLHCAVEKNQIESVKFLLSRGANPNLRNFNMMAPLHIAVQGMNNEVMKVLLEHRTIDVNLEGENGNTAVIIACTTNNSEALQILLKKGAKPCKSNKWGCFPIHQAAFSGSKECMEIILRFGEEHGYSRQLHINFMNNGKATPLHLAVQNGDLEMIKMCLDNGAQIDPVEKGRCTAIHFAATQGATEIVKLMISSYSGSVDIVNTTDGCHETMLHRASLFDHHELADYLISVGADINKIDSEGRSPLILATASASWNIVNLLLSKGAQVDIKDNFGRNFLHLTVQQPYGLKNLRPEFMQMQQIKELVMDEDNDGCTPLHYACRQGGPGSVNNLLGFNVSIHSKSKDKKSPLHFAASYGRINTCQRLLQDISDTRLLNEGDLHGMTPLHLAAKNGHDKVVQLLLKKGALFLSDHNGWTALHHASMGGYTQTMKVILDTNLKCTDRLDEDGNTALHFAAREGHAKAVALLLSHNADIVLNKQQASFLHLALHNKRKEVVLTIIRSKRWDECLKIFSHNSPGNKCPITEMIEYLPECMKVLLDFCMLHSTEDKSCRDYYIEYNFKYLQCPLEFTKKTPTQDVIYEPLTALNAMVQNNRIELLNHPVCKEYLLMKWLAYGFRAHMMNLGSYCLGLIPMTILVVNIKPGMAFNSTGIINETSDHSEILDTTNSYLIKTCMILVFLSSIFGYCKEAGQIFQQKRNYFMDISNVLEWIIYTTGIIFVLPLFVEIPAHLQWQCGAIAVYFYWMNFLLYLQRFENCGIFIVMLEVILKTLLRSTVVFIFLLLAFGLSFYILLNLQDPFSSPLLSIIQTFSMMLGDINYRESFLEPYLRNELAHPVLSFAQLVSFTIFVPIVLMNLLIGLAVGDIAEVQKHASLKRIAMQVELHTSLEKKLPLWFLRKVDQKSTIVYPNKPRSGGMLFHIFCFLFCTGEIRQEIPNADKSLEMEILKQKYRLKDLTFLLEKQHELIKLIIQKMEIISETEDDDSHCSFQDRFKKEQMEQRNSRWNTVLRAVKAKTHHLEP

Molecule `OCl` [NaOCl] has an EC50 (TRPA1(A)10a) of 5.7±0.6 ppm, an EC50 (hsTRPA1) of 21.1±3.6 ppm and an EC50 (TRPA1(B)10a) of 13.2±1.0 ppm. It also gave an EC50 (TRPA1(A)10b) of 1.7±0.7 ppm.
